Experimental data taken from patent US11208412B2 (DAEGU-GYEONGBUK MEDICAL INNOVATION FOUNDATION, priority 2017, dated 2021).

What was measured:
Experiment in all cases: Kinase selectivity, DiscoverX scanMAX Kinase assay panel (% control)
Type in all cases: binding
[1] = target: T1, kinases of the scanMAX Kinase assay panel (Homo sapiens, UniProt P04049); settings: RAF1; 1 uM
T1 construct: purchased DiscoverX Co. (contract measurement) scanMAX Kinase assay panel
In short: (§1)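 Compounds tested at 1 uM against the scanMAX kinase panel. Signal expressed as % control = (compound − positive control)/(DMSO negative control − positive control) × 100, where positive control = 0% and DMSO = 100%; below 35% counted as activity on that kinase.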

[2] = target: T2, kinases of the scanMAX Kinase assay panel (Homo sapiens, UniProt Q9UBF8); settings: PIK4CB; 1 uM
T2 construct: purchased DiscoverX Co. (contract measurement) scanMAX Kinase assay panel
In short: as §1

[3] = target: T3, kinases of the scanMAX Kinase assay panel (Homo sapiens, UniProt Q9Y5S2); settings: MRCKB; 1 uM
T3 construct: purchased DiscoverX Co. (contract measurement) scanMAX Kinase assay panel
In short: as §1

[4] = target: T4, kinases of the scanMAX Kinase assay panel (Homo sapiens, UniProt Q5VT25); settings: MRCKA; 1 uM
T4 construct: purchased DiscoverX Co. (contract measurement) scanMAX Kinase assay panel
In short: as §1

[5] = target: T5, kinases of the scanMAX Kinase assay panel (Homo sapiens, UniProt Q2M2I8); settings: AAK1; 1 uM
T5 construct: purchased DiscoverX Co. (contract measurement) scanMAX Kinase assay panel
In short: as §1

[6] = target: T6, kinases of the scanMAX Kinase assay panel (Homo sapiens, UniProt Q9BWU1); settings: CDK11; 1 uM
T6 construct: purchased DiscoverX Co. (contract measurement) scanMAX Kinase assay panel
In short: as §1

[7] = target: T7, kinases of the scanMAX Kinase assay panel (Homo sapiens, UniProt Q5S007, G2019S); settings: LRRK2(G2019S); 1 uM
T7 construct: purchased DiscoverX Co. (contract measurement) scanMAX Kinase assay panel
In short: as §1

[8] = target: T8, kinases of the scanMAX Kinase assay panel (Homo sapiens, UniProt O15530); settings: PDPK1; 1 uM
T8 construct: purchased DiscoverX Co. (contract measurement) scanMAX Kinase assay panel
T8 sequence (O15530 1-556): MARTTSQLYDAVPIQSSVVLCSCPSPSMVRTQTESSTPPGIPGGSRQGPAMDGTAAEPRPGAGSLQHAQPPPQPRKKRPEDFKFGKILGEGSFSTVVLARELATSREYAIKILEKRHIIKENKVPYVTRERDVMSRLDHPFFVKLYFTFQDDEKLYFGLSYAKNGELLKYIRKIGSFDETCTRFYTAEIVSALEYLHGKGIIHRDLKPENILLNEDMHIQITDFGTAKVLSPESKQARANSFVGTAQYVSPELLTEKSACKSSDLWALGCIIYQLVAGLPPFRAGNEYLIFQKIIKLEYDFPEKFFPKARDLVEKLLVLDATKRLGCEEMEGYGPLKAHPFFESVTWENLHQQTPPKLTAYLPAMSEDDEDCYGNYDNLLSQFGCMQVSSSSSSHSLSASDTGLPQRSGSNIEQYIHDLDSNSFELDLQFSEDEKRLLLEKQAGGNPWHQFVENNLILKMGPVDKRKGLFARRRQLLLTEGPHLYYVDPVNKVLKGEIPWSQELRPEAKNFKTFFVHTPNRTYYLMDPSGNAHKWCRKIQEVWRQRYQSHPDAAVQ
In short: as §1

[9] = target: T9, kinases of the scanMAX Kinase assay panel (Homo sapiens, UniProt P42336, C420R); settings: PIK3CA(C420R); 1 uM
T9 construct: purchased DiscoverX Co. (contract measurement) scanMAX Kinase assay panel
In short: as §1

[10] = target: T10, kinases of the scanMAX Kinase assay panel (Homo sapiens, UniProt P57058); settings: HUNK; 1 uM
T10 construct: purchased DiscoverX Co. (contract measurement) scanMAX Kinase assay panel
T10 sequence (P57058 1-714): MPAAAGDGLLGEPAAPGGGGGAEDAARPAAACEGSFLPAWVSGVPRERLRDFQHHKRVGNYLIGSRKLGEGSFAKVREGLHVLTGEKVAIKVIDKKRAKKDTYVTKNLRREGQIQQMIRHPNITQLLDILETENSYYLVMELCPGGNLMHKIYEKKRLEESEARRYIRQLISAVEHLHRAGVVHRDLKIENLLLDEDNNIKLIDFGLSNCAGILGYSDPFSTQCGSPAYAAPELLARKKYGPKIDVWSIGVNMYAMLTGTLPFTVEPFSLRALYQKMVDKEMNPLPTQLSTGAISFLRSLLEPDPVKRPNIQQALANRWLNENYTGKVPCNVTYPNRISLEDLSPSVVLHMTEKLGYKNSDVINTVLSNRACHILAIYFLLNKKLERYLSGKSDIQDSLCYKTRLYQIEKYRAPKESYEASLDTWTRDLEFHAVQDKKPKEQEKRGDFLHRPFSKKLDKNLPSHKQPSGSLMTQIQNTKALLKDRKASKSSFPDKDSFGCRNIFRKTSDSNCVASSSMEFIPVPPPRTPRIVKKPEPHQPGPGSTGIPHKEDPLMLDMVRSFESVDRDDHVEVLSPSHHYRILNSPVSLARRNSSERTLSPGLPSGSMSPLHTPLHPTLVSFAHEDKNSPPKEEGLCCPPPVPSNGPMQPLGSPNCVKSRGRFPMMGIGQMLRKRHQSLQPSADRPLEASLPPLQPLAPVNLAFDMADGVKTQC
In short: as §1

T4 sequence (Q5VT25 whole entry): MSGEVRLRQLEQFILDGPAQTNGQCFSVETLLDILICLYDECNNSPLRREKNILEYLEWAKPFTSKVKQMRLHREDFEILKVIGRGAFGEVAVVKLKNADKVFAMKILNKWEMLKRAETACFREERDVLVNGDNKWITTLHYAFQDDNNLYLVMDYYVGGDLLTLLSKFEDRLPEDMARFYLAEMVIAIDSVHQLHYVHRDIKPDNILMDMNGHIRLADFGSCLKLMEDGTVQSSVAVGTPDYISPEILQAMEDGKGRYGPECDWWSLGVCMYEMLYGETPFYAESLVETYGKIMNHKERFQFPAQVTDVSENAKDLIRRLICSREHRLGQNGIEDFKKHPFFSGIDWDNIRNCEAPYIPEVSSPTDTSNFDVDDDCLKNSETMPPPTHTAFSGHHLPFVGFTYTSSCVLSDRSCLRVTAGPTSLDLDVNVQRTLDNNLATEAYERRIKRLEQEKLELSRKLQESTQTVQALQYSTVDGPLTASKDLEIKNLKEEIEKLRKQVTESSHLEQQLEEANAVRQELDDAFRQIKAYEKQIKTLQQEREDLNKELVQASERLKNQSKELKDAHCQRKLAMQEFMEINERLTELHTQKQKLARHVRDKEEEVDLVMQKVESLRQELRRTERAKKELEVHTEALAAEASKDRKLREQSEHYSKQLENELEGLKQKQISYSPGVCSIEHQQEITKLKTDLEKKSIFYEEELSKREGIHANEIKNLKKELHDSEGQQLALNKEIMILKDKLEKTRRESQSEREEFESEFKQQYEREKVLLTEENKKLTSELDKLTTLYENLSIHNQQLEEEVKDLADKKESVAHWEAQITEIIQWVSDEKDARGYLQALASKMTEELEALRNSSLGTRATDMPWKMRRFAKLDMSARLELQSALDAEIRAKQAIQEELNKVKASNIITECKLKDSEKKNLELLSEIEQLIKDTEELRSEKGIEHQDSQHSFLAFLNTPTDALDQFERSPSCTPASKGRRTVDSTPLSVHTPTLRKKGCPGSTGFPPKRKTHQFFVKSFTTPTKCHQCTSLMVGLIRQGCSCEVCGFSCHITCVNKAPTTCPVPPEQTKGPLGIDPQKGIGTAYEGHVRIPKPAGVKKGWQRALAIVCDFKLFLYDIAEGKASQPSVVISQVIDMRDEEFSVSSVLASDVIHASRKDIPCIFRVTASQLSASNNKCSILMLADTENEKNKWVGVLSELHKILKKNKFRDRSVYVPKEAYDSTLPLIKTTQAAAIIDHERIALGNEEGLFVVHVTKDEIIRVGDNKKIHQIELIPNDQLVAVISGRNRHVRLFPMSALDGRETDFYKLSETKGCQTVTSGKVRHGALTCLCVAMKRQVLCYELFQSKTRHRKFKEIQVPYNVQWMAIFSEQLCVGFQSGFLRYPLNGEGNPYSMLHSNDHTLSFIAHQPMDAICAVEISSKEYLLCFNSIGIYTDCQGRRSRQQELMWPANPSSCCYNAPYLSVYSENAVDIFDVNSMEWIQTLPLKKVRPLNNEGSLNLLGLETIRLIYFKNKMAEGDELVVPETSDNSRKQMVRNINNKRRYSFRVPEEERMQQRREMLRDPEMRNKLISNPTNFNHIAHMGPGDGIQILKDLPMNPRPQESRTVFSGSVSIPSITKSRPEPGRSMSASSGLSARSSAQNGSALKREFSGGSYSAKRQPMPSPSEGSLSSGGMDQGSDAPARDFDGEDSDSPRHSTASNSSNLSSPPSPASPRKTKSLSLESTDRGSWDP
T6 sequence (Q9BWU1 whole entry): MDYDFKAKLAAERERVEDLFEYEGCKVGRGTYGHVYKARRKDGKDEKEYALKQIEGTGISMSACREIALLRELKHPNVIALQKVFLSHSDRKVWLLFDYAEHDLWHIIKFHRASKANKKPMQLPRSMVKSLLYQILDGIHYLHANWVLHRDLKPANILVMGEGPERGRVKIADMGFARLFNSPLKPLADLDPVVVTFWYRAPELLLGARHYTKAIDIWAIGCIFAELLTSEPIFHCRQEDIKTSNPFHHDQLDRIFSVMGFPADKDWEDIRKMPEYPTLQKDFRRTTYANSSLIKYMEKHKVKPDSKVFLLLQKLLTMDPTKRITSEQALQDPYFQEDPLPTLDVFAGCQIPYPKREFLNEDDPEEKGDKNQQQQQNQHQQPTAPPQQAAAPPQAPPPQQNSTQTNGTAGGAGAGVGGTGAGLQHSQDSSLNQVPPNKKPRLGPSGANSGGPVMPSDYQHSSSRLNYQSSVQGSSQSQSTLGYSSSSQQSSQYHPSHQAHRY
T2 sequence (Q9UBF8 whole entry): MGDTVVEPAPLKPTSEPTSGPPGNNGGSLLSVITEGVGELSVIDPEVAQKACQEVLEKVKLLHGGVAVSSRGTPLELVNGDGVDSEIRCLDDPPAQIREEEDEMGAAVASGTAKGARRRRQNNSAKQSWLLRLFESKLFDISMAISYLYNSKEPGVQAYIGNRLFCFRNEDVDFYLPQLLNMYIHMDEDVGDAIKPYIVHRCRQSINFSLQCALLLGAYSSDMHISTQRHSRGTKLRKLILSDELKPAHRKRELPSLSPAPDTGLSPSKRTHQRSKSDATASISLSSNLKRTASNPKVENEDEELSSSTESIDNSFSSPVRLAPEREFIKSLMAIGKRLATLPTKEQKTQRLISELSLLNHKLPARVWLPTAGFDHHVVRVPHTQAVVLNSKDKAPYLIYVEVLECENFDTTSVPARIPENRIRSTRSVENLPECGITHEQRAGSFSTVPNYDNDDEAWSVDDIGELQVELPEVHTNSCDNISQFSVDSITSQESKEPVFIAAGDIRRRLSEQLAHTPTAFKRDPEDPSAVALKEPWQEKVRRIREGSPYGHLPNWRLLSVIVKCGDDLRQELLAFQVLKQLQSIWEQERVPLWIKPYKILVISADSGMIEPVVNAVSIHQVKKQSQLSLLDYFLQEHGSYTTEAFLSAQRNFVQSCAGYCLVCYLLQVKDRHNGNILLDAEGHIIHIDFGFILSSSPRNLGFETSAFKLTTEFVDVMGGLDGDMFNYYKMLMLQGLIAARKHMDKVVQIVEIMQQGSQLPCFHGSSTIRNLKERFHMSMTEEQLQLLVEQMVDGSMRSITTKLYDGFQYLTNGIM
T5 sequence (Q2M2I8 whole entry): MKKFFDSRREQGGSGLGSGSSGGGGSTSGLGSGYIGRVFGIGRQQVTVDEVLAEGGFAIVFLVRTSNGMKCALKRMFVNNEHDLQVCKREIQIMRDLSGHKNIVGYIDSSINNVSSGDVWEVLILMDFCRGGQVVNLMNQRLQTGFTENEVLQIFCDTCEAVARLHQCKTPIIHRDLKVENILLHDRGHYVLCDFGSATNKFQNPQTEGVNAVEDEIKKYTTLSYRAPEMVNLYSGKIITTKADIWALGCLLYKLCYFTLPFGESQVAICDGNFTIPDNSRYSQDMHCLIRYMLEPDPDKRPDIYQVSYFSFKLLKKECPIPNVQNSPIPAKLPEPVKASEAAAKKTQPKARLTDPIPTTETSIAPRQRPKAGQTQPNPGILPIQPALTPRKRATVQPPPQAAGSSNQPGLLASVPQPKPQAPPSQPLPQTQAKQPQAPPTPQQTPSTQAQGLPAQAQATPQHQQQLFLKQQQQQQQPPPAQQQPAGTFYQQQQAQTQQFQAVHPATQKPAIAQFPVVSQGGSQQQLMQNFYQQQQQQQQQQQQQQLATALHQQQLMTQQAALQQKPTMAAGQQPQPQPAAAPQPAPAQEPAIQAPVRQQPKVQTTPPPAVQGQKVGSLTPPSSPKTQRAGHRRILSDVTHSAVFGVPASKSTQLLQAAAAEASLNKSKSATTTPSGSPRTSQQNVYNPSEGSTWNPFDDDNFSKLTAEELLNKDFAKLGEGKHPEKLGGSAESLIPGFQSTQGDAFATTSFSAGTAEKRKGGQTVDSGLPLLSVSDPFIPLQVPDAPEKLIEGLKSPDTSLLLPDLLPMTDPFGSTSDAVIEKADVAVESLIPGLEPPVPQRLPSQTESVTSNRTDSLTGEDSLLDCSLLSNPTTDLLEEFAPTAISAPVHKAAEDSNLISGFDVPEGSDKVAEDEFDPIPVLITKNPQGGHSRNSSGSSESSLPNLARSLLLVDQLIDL
T9 sequence (P42336 whole entry C420R): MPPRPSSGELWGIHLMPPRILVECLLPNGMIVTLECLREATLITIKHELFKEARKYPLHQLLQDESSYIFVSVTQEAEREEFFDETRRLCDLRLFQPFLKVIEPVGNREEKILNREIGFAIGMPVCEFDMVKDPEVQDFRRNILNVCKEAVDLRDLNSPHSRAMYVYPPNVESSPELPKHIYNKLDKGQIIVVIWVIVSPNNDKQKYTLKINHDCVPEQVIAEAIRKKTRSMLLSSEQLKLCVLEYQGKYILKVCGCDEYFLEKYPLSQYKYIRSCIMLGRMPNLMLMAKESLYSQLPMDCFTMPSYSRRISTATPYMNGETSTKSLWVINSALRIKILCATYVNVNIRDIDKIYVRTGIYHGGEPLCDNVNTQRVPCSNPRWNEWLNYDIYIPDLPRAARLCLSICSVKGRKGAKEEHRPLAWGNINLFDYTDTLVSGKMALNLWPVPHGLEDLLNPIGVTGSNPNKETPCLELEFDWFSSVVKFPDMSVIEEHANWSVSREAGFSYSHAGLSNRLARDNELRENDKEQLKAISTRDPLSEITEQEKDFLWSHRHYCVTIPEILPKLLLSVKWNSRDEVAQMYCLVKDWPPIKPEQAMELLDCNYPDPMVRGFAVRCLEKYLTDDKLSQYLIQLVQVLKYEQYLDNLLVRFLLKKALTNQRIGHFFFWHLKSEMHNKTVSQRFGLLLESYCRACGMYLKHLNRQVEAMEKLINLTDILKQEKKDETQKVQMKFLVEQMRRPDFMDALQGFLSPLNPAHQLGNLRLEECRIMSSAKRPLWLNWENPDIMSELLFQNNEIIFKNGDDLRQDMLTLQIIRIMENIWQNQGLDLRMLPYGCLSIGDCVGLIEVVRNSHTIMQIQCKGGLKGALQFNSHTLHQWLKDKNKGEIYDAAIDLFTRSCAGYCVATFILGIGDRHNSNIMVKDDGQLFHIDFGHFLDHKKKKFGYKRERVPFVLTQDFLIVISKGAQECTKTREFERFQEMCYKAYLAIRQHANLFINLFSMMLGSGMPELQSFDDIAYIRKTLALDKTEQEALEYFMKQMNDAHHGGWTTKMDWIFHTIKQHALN

Compound | remaining binding at 1 µM [1] [%] | remaining binding at 1 µM [2] [%] | remaining binding at 1 µM [3] [%] | remaining binding at 1 µM [4] [%] | remaining binding at 1 µM [5] [%] | remaining binding at 1 µM [6] [%] | remaining binding at 1 µM [7] [%] | remaining binding at 1 µM [8] [%] | remaining binding at 1 µM [9] [%] | remaining binding at 1 µM [10] [%]
CNc1nc(Nc2ccc(C(=O)N3CCOCC3)cc2OC)nc2[nH]cc(C#N)c12 [Example 1, 2-((2-methoxy-4-(morpholine-4-carbonyl)phenyl)amino)-4-(methylamino)-7H-pyrrolo[2,3-d]pyrimidine-5-carbonitrile] | 95 | 61 | 100 | 100 | 78 | 87 | 0 | 81 | 94 | 5.3
CC1(Nc2nc(Nc3cnn([C@H]4CCN(C5COC5)C[C@@H]4F)c3Cl)nc3[nH]cc(C#N)c23)CC1 [Example 52, 2-((5-chloro-1-((3S,4S)-3-fluoro-1-(oxetane-3-yl)piperidine-4-yl)-1H-pyrazole-4-yl)amino)((1-methylcyclopropyl)amino)-7H-pyrrolo[2,3-d]pyrimidine-5-carbonitrile] | 100 | 60 | 89 | 100 | 9.6 | 100 | 2.6 | 70 | 63 | 51
CCNc1nc(Nc2ccc(C(=O)N3CCC(N4CCOCC4)CC3)cc2OC)nc2[nH]cc(C(F)(F)F)c12 [Example 104, (4-((4-(ethylamino)-5-(trifluoromethyl)-7H-pyrrolo[2,3-d]pyrimidine-2-yl)amino)-3-methoxyphenyl)(4-morpholinopiperidine-1-yl)methanone] | 100 | 99 | 100 | 100 | 90 | 96 | 2 | 100 | 91 | 0.7
